Experiment: Distribution and quantification of propranolol in whole-body mouse sections by MALDI mass spectrometry imaging
Format: in vivo
Conditions: 7.5 mg/kg intravenous, 20 minutes post-injection, sagittal whole-body section, TEC-normalized
Method: Male Swiss mice weighing 25-40 g (Charles River, France) were used.
The animals were sacrificed by CO2 asphyxiation at 20 minutes post-injection.
The samples (control and dosed tissue) were sectioned into 20 μm-thick layers using a CM1510S cryostat (Leica Microsystems, Nanterre, France) cooled at −26° C. The sections were then deposited on conductive ITO (indium tin oxide) slides (Bruker Daltonics, Bremen, Germany).
This matrix was prepared at a concentration of 40 mg/ml in methanol/0.1% TFA (1:1, v/v). The matrix solution was deposited using the SunCollect spraying system (SunChrome, Germany).
This range of dilutions extends from 10 pmol/μl to 0.02 pmol/μl and includes seven points.
The images were obtained using an AutoFlex Speed MALDI-TOF mass spectrometer (Bruker Daltonics, Bremen, Germany) equipped with a Smartbeam laser. The data was generated in positive reflectron mode. A total of 700 spectra were obtained for each spot with a 1000 Hz laser frequency and a 300×300 μm′ image spatial resolution on a mass range of 100 Da to 1000 Da. The FlexImaging version 2.1 software was used to reconstruct the images.

total quantity of the target analyte in the brain: about 5 ng
SMILES: CC(C)NCC(O)COc1cccc2ccccc12 (stereo not shown) [propranolol, Propranolol]

Source: patent US9182409B2, “Mass spectrometry imaging method for detecting and quantifying a target molecule in a tissue sample” (priority 2011, dated 2015)
